# Assay results: US7863325B2, “Crystalline genistein sodium salt dihydrate” (Axcentua Pharmaceuticals AB, priority 2008, dated 2011)
# Like-named read-outs stand apart in the source and are kept apart here.
# How the values were obtained:
# [1] = Solubility in different solvents (aliquot addition until dissolution); assay type: physicochemical
# Procedure: Solubility in different solvents: Solubility in different organic solvents was measured using the following protocol. Approximately 25 mg portions of genistein and crystalline genistein sodium dihydrate salt were placed in 48 different vials, separately. 5 volume aliquots of each solvent were added exclusively to a vial. Between each addition, the mixture was checked for dissolution and if no dissolution was apparent, the procedure was continued until dissolution was observed or when 50 volumes had been added.
# [2] = Hydration study (IPA/water mixtures, XRPD and TGA); assay type: physicochemical; settings: IPA/water mixtures (3%, 5% and 10%), ca. 48 hours, ambient temperature
# Procedure: Approximately 100 mg of crystalline genistein sodium salt dihydrate were placed in ca. 500 μL IPA/water mixtures (3%, 5% and 10%) at the water level. Each mixture was agitated for ca. 48 hours at ambient temperature and then filtered to recover the solid for XRPD and TGA studies.
# [3] = SuperSol 1000 kinetic and equilibrium solubility assay
# [4] = rat
# Procedure: Preparation of Dosing Solutions for In-Vivo Study: Genistein and Crystalline genistein sodium salt dihydrate were stored at room temperature under desiccant and protected from light. The dosing solutions were prepared fresh from powders on the day of dosing. The dosing solution for intravenous administration (IV) was prepared at 1 mg/mL (free acid) in 50:50 DMSO:saline. The dosing solutions for intraduodenal administration (ID) were prepared at 2 mg/mL (genistein free acid) in a 0.2% sodium carboxymethyl cellulose (Na CMC) solution in water.
# Animal Dosing: The pharmacokinetics of genistein was evaluated in fasted male Sprague-Dawley rats. Each animal was fitted with a jugular vein cannula (JVC) for blood sampling. Animals intended for intravenous dosing were fitted with an additional JVC for dose administration. Animals intended for intraduodenal dosing were fitted with an intraduodenal cannula (IDC) for dose administration. Surgically modified animals were housed one per cage. All animals were supplied with a commercial rodent diet (LabDiet, Certified Rodent Diet #5002) ad libitum prior to study initiation. […] Water was supplied ad libitum.
# Intraduodenal dosing solutions were administered as a single bolus dose at time zero on the day of dosing. Intravenous doses were administered as a slow IV injection over approximately 1 minute. Blood sampling times began at the end of the infusion. Blood samples were collected.
# Each blood sample was collected from the rats via a jugular vein cannula and placed into chilled polypropylene tubes containing sodium heparin as an anticoagulant. Samples were centrifuged at a temperature of 4° C. and at a speed of 13,000 rpm for 5 minutes. Samples were maintained chilled throughout processing. Each plasma sample was split into two aliquots. The first aliquot contained 50 μL of plasma. All remaining plasma volume was used for the second aliquot. Samples were then placed on dry ice, and stored in a freezer set to maintain −60° C. to −80° C. The total concentration of genistein in plasma samples were analyzed by LC-MS/MS after an overnight incubation with glucuronidase/arylsulfatase enzyme mixture. Pharmacokinetic parameters were calculated using the WinNonlin software.
# Analysis of Plasma Samples: An LC-MS/MS analytical method for the determination of genistein in rat plasma was developed. Prior to sample analysis, a standard curve was analyzed to determine the specificity, range, and linearity of the method. Total genistein in plasma samples was determined by pre-treating all samples with β-glucuronidase/arylsulfatase enzymes and incubating prior to analysis. Incubation with the enzyme mix deconjugated any glucuronide or sulfate metabolites of genistein back to the parent form.
# Acceptance Criteria for LC-MS/MS Analysis: One standard curve was dispersed throughout each analytical run. At least ⅝ of the standards must be accurate to within ±20%, except at the LLOQ where ±25% is acceptable, in order for the run to pass.
# Pharmacokinetic Analysis: Individual plasma concentrations versus time data for genistein were subjected to non-compartmental analysis using the pharmacokinetic program WinNonlin v. […] Plasma concentrations below the limit of quantitation (10 ng/mL) were assigned a value of zero for PK analysis only.
# [5] = Aqueous solubility (slurry shaken ca. 24 hours, filtered, HPLC); assay type: physicochemical; settings: aqueous buffer, thermodynamic from solid
# Procedure: Aqueous Solubility: Aqueous solubility was measured using the following protocol. Slurries of genistein and of crystalline genistein sodium dihydrate salt were made up in aqueous media in which pH was set at 4.5, 6.7, and 7.5, each slurry was shaken at ambient temperature for ca. 24 hours and then filtered using a 0.2 μm filter into a clean vial. The saturated solutions were then diluted and analyzed for API (genistein) content using N-Ac-DL-Methionine on a Chirobiotic T HPLC column and UV detector set at λmax=270 nm. The mobile phase was acetonitrile/water run in isocratic mode over a 30 minute period. The results are presented in Table 3, (BDL=below detection limits).
# [6] = Stability study (80° C., 40° C./75 RH %, light; XRPD and colour); assay type: physicochemical
# Procedure: Sample stability was tested at 80° C. for 7 days and at 40° C./75 RH % for 7 days. Observations such as color change were noted after 7 days and XRPD of samples were taken after 7 days to investigate any solid form change.
# [7] = Disproportionation study (slurry in distilled water, XRPD, pH); assay type: physicochemical; settings: 50 mg slurried in 250 μL distilled water ca. 48 hours
# Procedure: A 50 mg sample of crystalline genistein sodium salt dihydrate was slurried in 250 μL distilled water for ca. 48 hours and then checked by XRPD for disproportionation. The pH of the supernatant was also measured using a Corning 240 pH meter. […] The pH of the supernatant after slurrying was 7.1.
# [8] = Gravimetric vapor sorption (GVS); assay type: physicochemical
# Procedure: Gravimetric Vapor Sorption (GVS): Approximately 15 mg of sample was placed into a wire-mesh vapor sorption balance pan and loaded into an SMS intrinsic vapor sorption balance supplied (Surface Measurement Systems Instruments). The sample was then dried by maintaining a 0% humidity environment until no further weight change was recorded. Subsequently, the sample was then subjected to a ramping profile from 0-90% RH at 10% RH increments, maintaining the sample at each step until equilibration had been attained (99.5% step completion). Upon reaching equilibration, the % RH within the apparatus was ramped to the next step and the equilibration procedure repeated. After completion of the sorption cycle, the sample was then dried using the same procedure. The weight change during the sorption/desorption cycles were then monitored, allowing for the hygroscopic nature of the sample to be determined.
# However, between 20 and 70 RH % (typical working range of material) only ca. 2% moisture change was observed.
# [9] = intravenous, 1 mg/kg, mean ± SD, n = 3
smiles,measurement,setting,value
O.O.O=c1c(-c2ccc(O)cc2)coc2cc(O)cc(O)c12.[Na] [genistein sodium salt dihydrate],solubility,"[1]; aqueous with cosolvent or surfactant or cyclodextrin, thermodynamic from solid, Acetone/Water (50:50)",69.6 mg/mL
same,solubility,"[1]; organic solvent or mixture, thermodynamic from solid, 1,4-dioxane",< 10.6 mg/mL
same,solubility,"[1]; organic solvent or mixture, thermodynamic from solid, 1-Butanol (BuOH)",19.3 mg/mL
same,solubility,"[1]; organic solvent or mixture, thermodynamic from solid, 2-Propanol (IPA)",< 10.2 mg/mL
same,solubility,"[1]; organic solvent or mixture, thermodynamic from solid, Acetone",< 10.2 mg/mL
same,solubility,"[1]; organic solvent or mixture, thermodynamic from solid, Acetone/IPA (50:50)",20.2 mg/mL
same,solubility,"[1]; organic solvent or mixture, thermodynamic from solid, Acetonitrile (MeCN)",< 10.4 mg/mL
same,solubility,"[1]; organic solvent or mixture, thermodynamic from solid, Cyclohexane",< 10.9 mg/mL
same,solubility,"[1]; organic solvent or mixture, thermodynamic from solid, Dichloromethane (DCM)",< 10.8 mg/mL
same,solubility,"[1]; organic solvent or mixture, thermodynamic from solid, Diisopropylether (DIPE)",< 9.7 mg/mL
same,solubility,"[1]; organic solvent or mixture, thermodynamic from solid, Dimethyl sulfoxide (DMSO)",> 235 mg/mL
same,solubility,"[1]; organic solvent or mixture, thermodynamic from solid, Ethanol (EtOH)",98 mg/mL
same,solubility,"[1]; organic solvent or mixture, thermodynamic from solid, Heptane",< 9.9 mg/mL
same,solubility,"[1]; organic solvent or mixture, thermodynamic from solid, Methanol (MeOH)",< 8.8 mg/mL
same,solubility,"[1]; organic solvent or mixture, thermodynamic from solid, Methyl acetate (MeOAc)",< 10.2 mg/mL
same,solubility,"[1]; organic solvent or mixture, thermodynamic from solid, Methyl isobutyl ketone (MIBK)",< 9 mg/mL
same,solubility,"[1]; organic solvent or mixture, thermodynamic from solid, Methylethyl ketone (MEK)",< 9.2 mg/mL
same,solubility,"[1]; organic solvent or mixture, thermodynamic from solid, N-Methyl-2-pyrrolidinone (NMP)",90.4 mg/mL
same,solubility,"[1]; organic solvent or mixture, thermodynamic from solid, N-N-dimethylformamide (DMF)",> 218 mg/mL
same,solubility,"[1]; organic solvent or mixture, thermodynamic from solid, Octanol",< 11 mg/mL
same,solubility,"[1]; organic solvent or mixture, thermodynamic from solid, Tetrahydrofuran (THF)",< 10.4 mg/mL
same,solubility,"[1]; organic solvent or mixture, thermodynamic from solid, Toluene",< 9.9 mg/mL
same,solubility,"[1]; organic solvent or mixture, thermodynamic from solid, Toluene/Dioxane (50:50)",< 9.7 mg/mL
same,solubility,"[1]; organic solvent or mixture, thermodynamic from solid, tert-Butylmethyl ether (TBME)",< 9.2 mg/mL
same,"Hydrate formation (XRPD, TGA)",[2],no further hydrates
same,C[Eq] (late kinetic solubility),[3]; EtOH 100%,11.20 mg×1^−1
same,C[MSS] (early kinetic solubility),[3]; EtOH 100%,10.85 mg×1^−1
same,ISI (Intrinsic Solubility Index),[3]; EtOH 100%,0.07
same,"ISI / late solubility profile, rating in words",[3]; EtOH 100%,poor
same,KSR (Kinetic Solubility ratio),[3]; EtOH 100%,0.97
same,"KSR, rating in words",[3]; EtOH 100%,excellent
same,MSS (Maximum Solubility Speed),[3]; EtOH 100%,36.90 mg×1^−1×min^−1
same,"MSS, rating in words",[3]; EtOH 100%,excellent
same,"ΔC [C, − CMSS]",[3]; EtOH 100%,0.35 mg×1^−1
same,C[Eq] (late kinetic solubility),[3]; EtOH/dH2O 50/50 (vol/vol),17.40 mg×1^−1
same,C[MSS] (early kinetic solubility),[3]; EtOH/dH2O 50/50 (vol/vol),14.67 mg×1^−1
same,ISI (Intrinsic Solubility Index),[3]; EtOH/dH2O 50/50 (vol/vol),0.60
same,"ISI / late solubility profile, rating in words",[3]; EtOH/dH2O 50/50 (vol/vol),good-to-acceptable
same,KSR (Kinetic Solubility ratio),[3]; EtOH/dH2O 50/50 (vol/vol),0.84
same,"KSR, rating in words",[3]; EtOH/dH2O 50/50 (vol/vol),excellent
same,MSS (Maximum Solubility Speed),[3]; EtOH/dH2O 50/50 (vol/vol),20.66 mg×1^−1×min^−1
same,"MSS, rating in words",[3]; EtOH/dH2O 50/50 (vol/vol),excellent
same,ΔC [CEq − CMSS],[3]; EtOH/dH2O 50/50 (vol/vol),2.73 mg×1^−1
same,C[Eq] (late kinetic solubility),[3]; EtOH/dH2O 75/25 (vol/vol),15.86 mg×1^−1
same,C[MSS] (early kinetic solubility),[3]; EtOH/dH2O 75/25 (vol/vol),11.20 mg×1^−1
same,ISI (Intrinsic Solubility Index),[3]; EtOH/dH2O 75/25 (vol/vol),1.26
same,"ISI / late solubility profile, rating in words",[3]; EtOH/dH2O 75/25 (vol/vol),excellent
same,KSR (Kinetic Solubility ratio),[3]; EtOH/dH2O 75/25 (vol/vol),0.71
same,"KSR, rating in words",[3]; EtOH/dH2O 75/25 (vol/vol),excellent
same,MSS (Maximum Solubility Speed),[3]; EtOH/dH2O 75/25 (vol/vol),37.33 mg×1^−1×min^−1
same,"MSS, rating in words",[3]; EtOH/dH2O 75/25 (vol/vol),excellent
same,ΔC [CEq − CMSS],[3]; EtOH/dH2O 75/25 (vol/vol),4.66 mg×1^−1
same,Time after ID dosing at which Cmax was observed,"[4]; intraduodenal dosing, mean profile (FIG. 13)",≤ 15 min
same,AUClast,"[4]; intraduodenal, 20 mg/kg, mean ± SD, n = 3",1161 ± 358 kg·ng·h/mL/mg
same,"Pharmacokinetic profile following IV dosing, compared between the two forms","[4]; intravenous, 1 mg/kg",not significantly different
same,AUClast,[4]; [9],2129 ± 331 kg·ng·h/mL/mg
same,AUC∞,[4]; [9],2189 ± 356 kg·ng·h/mL/mg
same,solubility,"[5]; Water/slurry pH 4.5, ambient temperature",0.136 mg/mL
same,solubility,"[5]; Water/slurry pH 6.7, ambient temperature",0.707 mg/mL
same,solubility,"[5]; Water/slurry pH 7.5, ambient temperature",0.65 mg/mL
same,"Solid form stability (XRPD, colour)",[6]; 40° C./75 RH % for 7 days,no change
same,"Solid form stability (XRPD, colour)",[6]; 80° C. for 7 days,slight loss in crystallinity
same,Light stability,[6]; 7 day light stability tests,no change in color or solid form
same,Disproportionation (XRPD),[7],No signs of disproportionation
same,pH of the supernatant after slurrying,[7],7.1
same,Maximum water adsorbed (GVS),[8]; 0-90% RH cycle,45 wt %
same,Moisture change (GVS),[8]; between 20 and 70 RH %,ca. 2%
